{"source": "patent US9889093B2", "about": "“Application of andrographolide in the preparation of a pharmaceutical for treatment of inflammatory bowel disease, andrographolide enteric targeting micropellet, and method for preparation thereof” (TASLY PHARMACEUTICAL GROUP CO., LTD., priority 2013, dated 2018)", "key": {"[1]": {"assay": "Solubility of the drug in DMSO and fish farm water", "format": "physicochemical"}, "[2]": {"tested_on": "TNBS-induced colitis mice", "assay": "TNBS-induced UC (colitis) mouse model", "format": "in vivo", "conditions": "for Body weight / Colon weight: oral twice daily; for Body weight / Colon weight / Colon scores / Colon indices / Decrease rate of colon specific weight: 7 days; for Colon scores: histopathological score 0-4; for Colon indices: percentage of colon weight to body weight; for Decrease rate of colon specific weight: vs model control group", "experimental": "5% (w/v) TNBS solution was diluted with double-distilled water and mixed with 50% (v/v) ethanol in equal volume to have 1.5% (w/v) TNBS solution. In the model control group, the mice were anesthetized with 1 wt % pentobarbital solution at a dose of 0.05 ml/10 g body weight. After being anesthetized, the mice were administrated with 1.5% (w/v) TNBS solution at a dose of 0.1 ml/mouse by gently inserting stomach perfusion device to about 3 cm depth via anus and arriving at the colon, and the IBD was induced. In the saline group, the saline was gently injected into the colon at a dose of 0.1 ml/mouse. In the normal control group, 50% (v/v) ethanol was gently injected into the colon at a dose of 0.1 ml mouse.\nAfter one week adaptive feeding, all animals were randomly divided into 5 groups according to body weight, 10 mice in one group: the normal control group, the model control group, the andrographolide low-dose group (20 mg/kg/d), the andrographolide high-dose group (40 mg/kg/d) and the positive control group (Sulfasalazine group, 300 mg/kg/d). Two hours after making model, the animals in each treating groups were orally administrated twice daily with the andrographolide and once daily in the positive control group. After successive administration for 7 days, the abdomen was opened 24 hours after the last administration to observe adhesion degree between the colon and other organs. The colon was separated and weighed.\n1. Body weight: after making model, body weight was measured every day to observe the change in the animals.\n2. Evaluation of inflammation: the abdomen was opened 24 hours after the last administration to observe adhesion degree between the colon and other organs. Every segment of the colon was taken out and weighed to calculate the percentage of the colon weight to body weight, as the colon index. The formula was presented as follows: Decrease rate of colon specific weight=(colon index of the model control group−colon index of the treatment group)/colon index of the model control group×100%\n3. Histopathological examination: a part of the colon was taken to prepare the pathological section, and the standard for score was as follows: • 0 score, no inflammatory symptoms; • 1 score, low-grade inflammation with no structure change; • 2 score, low-grade leukocyte infiltration; • 3 score, high-grade leukocyte infiltration, high vascular density, crypt extension, thickened colon wall and superficial ulcer • 4 score, high-grade leukocyte infiltrating exceeding to mucous layer, crypt extension, decrease of goblet cell, high vascular density, thickened colon wall and extensive ulcer\nSPSS11.5 software was used for analysis and the data were expressed as x±S. Variance analysis was used for comparison of significant difference among groups."}, "DSS-induced UC mice": {"tested_on": "DSS-induced UC mice", "assay": "DSS-induced UC mouse model, disease active index", "format": "in vivo", "source_text": "4 Dose Designing and Grouping • 4.1 Grouping: quarantine-qualified 84 mice were randomly divided into 6 groups: the model control group, the positive control group, the tested drug low-dose intragastric group, the tested drug high-dose intragastric group, the tested drug low-dose intracolonical group and the tested drug high-dose intracolonical group, 14 mice per group. All animals drank 5% DSS solution daily for consecutive 14 days to establish UC model. Animals were administrated with the drug for treatment on the 2nd day after being given 5% DSS drinking water. • 4.2 Dose: in this study, dose of administration of the mice in all groups was designed on the basis of client's requirements, and the same doses were adopted in both intragastric and intracolonical groups. Animals were not treated in the model control group, the positive control group (mesalazine enteric tablet, 227.5 mg·kg^−1·d^−1), the andrographolide low-dose intragastric group (60 mg·kg^1·d^−1), the andrographolide high-dose intragastric group (180 mg·kg^−1·d^−1), the andrographolide low-dose intracolonical group (60 mg·kg^−1·d^−1) and the andrographolide high-dose intracolonical group (180 mg·kg^−1·d^−1).\n5 Method • 5.1 Method of making UC model: all animals drank 5% DSS solution daily for consecutive 14 days. • 5.2 Method of administration: on the 2nd day after modeling, the mice were treated intragastrically or intracolonically with the drug at 1 mL/100 g once a day for consecutive 14 days. • 5.3 Method for sampling in experiment: 2 hours after the last administration, the mice were killed by cervical vertebra dislocation and abdomen was opened to separate the colon. Along mesenteric side, the intestinal lumen was cut and rinsed with 4° C. normal saline and spread on a plastic plate. • 5.4 Method for evaluating disease active index (DAI): the disease active index was assessed at the 7th and 14th day after administration. The method was presented together with the following three parameters: the body weight loss percentages (unchanged BW: 0 score, 1˜5: 1 score, 5˜10: 2 score, 10˜15: 3 score, more than 15: 4 score), stool viscosity (normal stool: 0 score, loosen stool: 2 score, diarrhea: 4 score) and blood stool (normal stool: 0 score, occult blood stool: 2 score and positive blood stool: 4 score). Total score of three parameters was divided by 3 to give the DAI, namely DAI=(BW index score+stool character score+stool blood score)/3.\n6 Observation Indices • 6.1 Observation: the general clinical symptoms in the mice were observed daily from the beginning to the end of the experiment, and the stool, mental status and death status were recorded. • 6.2 Body weight: BW was recorded weekly from the beginning to the end of the experiment. • 6.3 Calculation of DAI: DAI was calculated on the 7th and 14th day after administration so as to assess disease activity. • 6.4 The colon mucosal tissue 8˜10 cm away from the anus was sampled, embedded with paraffin and stained with routine HE. Colon mucosal injury was observed by a microscope and histological injury was scored based on the following indices: ulcer inflammatory granuloma, fibrosis and pathological degree.\nData were expressed as mean+standard deviation (x±S). All numerical variables were analyzed with SPSS13.0 software by one-way ANOVA. T-test analysis was used for inter-group comparison."}, "[3]": {"tested_on": "zebra fish Crohn's disease model", "assay": "Zebra fish Crohn's disease model (TNBS), efficacy", "format": "in vivo", "conditions": "for Inflammation regression ratio: based on neutrophil infiltration; for Number of Neutrophil: intestinal tissue, x ± SE, n = 10; for Ratio with the blank control group: neutrophil number"}, "[4]": {"conditions": "andrographolide high-dose 40 mg/kg/d"}, "[5]": {"conditions": "andrographolide low-dose 20 mg/kg/d"}, "[6]": {"conditions": "andrographolide high-dose 180 mg/kg, intracolonical"}, "[7]": {"conditions": "andrographolide high-dose 180 mg/kg, intragastric"}, "[8]": {"conditions": "andrographolide low-dose 60 mg/kg, intracolonical"}, "[9]": {"conditions": "andrographolide low-dose 60 mg/kg, intragastric"}}, "note": "Marks after values point to notes of the source that are not given here.", "data": [{"molecule": "C=C1CC[C@@H]2[C@](C)(CO)[C@H](O)CC[C@@]2(C)[C@@H]1C/C=C1/C(=O)OC[C@H]1O", "note": "[Andrographolide]", "values": [{"measurement": "solubility", "setting": "[1]; DMSO, organic solvent or mixture", "value": "~250", "unit": "mg/mL"}, {"measurement": "Concentration at which the drug began to precipitate", "setting": "[1]; fish farm water", "value": "≥ 500", "unit": "µg/mL"}, {"measurement": "Body weight increase compared with the model control group", "setting": "[2]; FIG. 1, treated groups", "value": "increased faster than that in the model control group"}, {"measurement": "Body weight", "setting": "[2]; [4]", "value": "20.95 ± 1.09", "unit": "g"}, {"measurement": "Colon weight", "setting": "[2]; [4]", "value": "0.29 ± 0.09", "unit": "g"}, {"measurement": "Body weight", "setting": "[2]; [5]", "value": "19.95 ± 2.05", "unit": "g"}, {"measurement": "Colon weight", "setting": "[2]; [5]", "value": "0.43 ± 0.12", "unit": "g"}, {"measurement": "Colon scores", "setting": "[2]; [4]", "value": "1.8**"}, {"measurement": "Colon scores", "setting": "[2]; [5]", "value": 3.2}, {"measurement": "Colon indices", "setting": "[2]; [4]", "value": "1.38 ± 0.46"}, {"measurement": "Colon indices", "setting": "[2]; [5]", "value": "2.24 ± 0.90"}, {"measurement": "Intestinal elasticity compared with the model control group", "setting": "[2]; treated groups, after 7 days", "value": "higher than that in the model control group"}, {"measurement": "Decrease rate of colon specific weight", "setting": "[2]; [4]", "value": 58.96, "unit": "%"}, {"measurement": "Decrease rate of colon specific weight", "setting": "[2]; [5]", "value": 33.20, "unit": "%"}, {"measurement": "DAI on the 7th day", "setting": "DSS-induced UC mice; [6]", "value": "1.36 ± 0.64"}, {"measurement": "DAI on the 14th day", "setting": "DSS-induced UC mice; [6]", "value": "1.35 ± 0.18"}, {"measurement": "DAI on the 7th day", "setting": "DSS-induced UC mice; [7]", "value": "1.43 ± 0.38"}, {"measurement": "DAI on the 14th day", "setting": "DSS-induced UC mice; [7]", "value": "1.64 ± 0.83"}, {"measurement": "DAI on the 7th day", "setting": "DSS-induced UC mice; [8]", "value": "1.67 ± 0.65"}, {"measurement": "DAI on the 14th day", "setting": "DSS-induced UC mice; [8]", "value": "1.77 ± 0.95"}, {"measurement": "DAI on the 7th day", "setting": "DSS-induced UC mice; [9]", "value": "1.63 ± 0.99"}, {"measurement": "DAI on the 14th day", "setting": "DSS-induced UC mice; [9]", "value": "2.01 ± 0.80"}, {"measurement": "Intestinal lumen area reduced by (therapeutical efficacy)", "setting": "[3]; andrographolide 500 μg/ml, 48 hours", "value": "65±10.1", "unit": "%"}, {"measurement": "Inflammation regression ratio", "setting": "[3]; andrographolide 50 μg/ml", "value": "45 ± 3.7", "unit": "%"}, {"measurement": "Inflammation regression ratio", "setting": "[3]; andrographolide 50 μg/ml, listed as andrographolide", "value": "45±3.74", "unit": "%"}, {"measurement": "Inflammation regression ratio", "setting": "[3]; andrographolide 100 μg/ml", "value": "46 ± 3.7", "unit": "%"}, {"measurement": "Inflammation regression ratio", "setting": "[3]; andrographolide 100 μg/ml, listed as andrographolide", "value": "46±3.74", "unit": "%"}, {"measurement": "Inflammation regression ratio", "setting": "[3]; andrographolide 250 μg/ml", "value": "63 ± 4.4", "unit": "%"}, {"measurement": "Inflammation regression ratio", "setting": "[3]; andrographolide 250 μg/ml, listed as andrographolide", "value": "63±4.42", "unit": "%"}, {"measurement": "Inflammation regression ratio", "setting": "[3]; andrographolide 500 μg/ml", "value": "79 ± 9.0", "unit": "%"}, {"measurement": "Inflammation regression ratio", "setting": "[3]; andrographolide 500 μg/ml, listed as andrographolide", "value": "79±8.98", "unit": "%"}, {"measurement": "Number of Neutrophil", "setting": "[3]; andrographolide 50 μg/ml", "value": "18 ± 0.54"}, {"measurement": "Number of Neutrophil", "setting": "[3]; andrographolide 100 μg/ml", "value": "17 ± 0.54"}, {"measurement": "Number of Neutrophil", "setting": "[3]; andrographolide 250 μg/ml", "value": "15 ± 0.64"}, {"measurement": "Number of Neutrophil", "setting": "[3]; andrographolide 500 μg/ml", "value": "13 ± 1.30"}, {"measurement": "Ratio with the blank control group", "setting": "[3]; andrographolide 50 μg/ml", "value": "1.97 ± 0.06"}, {"measurement": "Ratio with the blank control group", "setting": "[3]; andrographolide 100 μg/ml", "value": "1.96 ± 0.06"}, {"measurement": "Ratio with the blank control group", "setting": "[3]; andrographolide 250 μg/ml", "value": "1.67 ± 0.07"}, {"measurement": "Ratio with the blank control group", "setting": "[3]; andrographolide 500 μg/ml", "value": "1.40 ± 0.15"}]}]}
